Experimental data as given in patent US20100015220A1, “NIACIN AND NSAID COMBINATION THERAPY” (priority 2008, published 2010).
Where two headings read alike, the source gives them in different places. Blank lines part the entries; values can stand above or below the molecule they belong to.

How the values were obtained:
[1] = system: flushing following niacin dosing; assay: Example 1 clinical study: anti-flushing effect of aspirin regimen on immediate release niacin; assay type: in vivo, healthy volunteers; conditions: 243 mg aspirin per day for four days plus 20 mg/hr from 6 h before to 5 h after immediate release niacin; vs placebo
Excerpt: Provided is the clinical study to establish an anti-flushing effect of aspirin regimen on immediate release niacin. The primary endpoints for this study were treatment group comparisons of: • incidence, duration and severity of flushing following niacin dosing; • routine monitoring adverse events. Subjects have screening procedures performed up to 4 weeks prior to the first dosing visit. All qualified subjects received two single doses of niacin one week apart. Subjects were randomized to receive either an aspirin regimen or a placebo regimen prior to their niacin dose on day 1 and the opposite regimen prior to their niacin dose on day 8. At randomization, subjects received blinded study medication to be taken in the morning and evening of days −4, −3, −2 and −1. Subjects checked into the clinic on day −1 and remained housed for approximately 24 hours after niacin dosing on day 1. Prior to leaving the clinic, they received blinded study medication to be taken on the morning and evening of days 4, 5, 6, and 7. Subjects returned to the clinic on day 7 and remained housed for approximately 24 hours after niacin dosing on day 8. […] Episodes of flushing (including burning, itching, crawling sensation, pain and/or reddening of the skin, fever-like sensation) were recorded with start and end time and maximum severity captured. […]

[2] = system: flushing associated with single-dose administration of extended-release niacin (Niaspan); assay: Example 2 three-way cross-over study: anti-flushing effects of two aspirin regimens versus placebo on extended release niacin; assay type: in vivo, healthy volunteers; conditions: for subjects who experienced a flushing response: 2 g extended-release niacin; for subjects who experienced a flushing response / total number of flushing episodes: 46 subjects; for maximum severity of flushing, mean / maximum severity of flushing, median: 100 mm VAS; for total cumulative duration of flushing, mean / total cumulative duration of flushing, median: start of first episode to end of last
Excerpt: To assess the ability of two aspirin regimens to decrease flushing associated with single-dose administration of extended-release niacin (Niaspan®). […] Study subjects remained housed overnight at the clinical research center following niacin dosing to carefully monitor for flushing reactions and other adverse events. Each subject received all three dosing regimens in a randomized, three-way cross-over fashion. Subjects have screening procedures performed up to 4 weeks prior to Period 1 Day (the first dosing visit), including assessment of flushing response to a 500 mg immediate release niacin (Niacor®) challenge. All qualified subjects received three single doses of extended-release niacin at least one week apart during three treatment periods. Subjects were randomized to receive one of the two aspirin regimens or placebo prior to their niacin dose on Day 1 of each treatment period. At randomization, subjects received blinded study medication to be taken in the evening of days -3 and -2. For each treatment period, subjects checked into the clinic on Day -1 and remained housed for at least 18 hours after niacin dosing on Day 1. Prior to leaving the clinic during treatment periods 1 and 2, subjects received blinded study medication to be taken in the morning and evening of Days -3 and -2 of the next treatment period. End of study procedures was performed on Day 2 of treatment period 3 240 mg […]. for three days prior to niacin dosing plus 30 mg ASA per hour for eight hours, starting 4 hours prior to niacin dosing. 10 mg ASA per hour for 6 hours prior to niacin dosing. This regimen tested whether a lower dose of aspirin without an aspirin lead-in, and given entirely prior to niacin dosing, was sufficient to diminish flushing. No aspirin. This regimen acted as the negative control. Niaspan®, as well as blinded aspirin or placebo, for oral administration during the inpatient portion of each treatment period (Day -1 and Day 1) were dispensed by study pharmacist and administered to the subject by study personnel. Aspirin or placebo were administered in the evening on Day -1 and hourly on Day 1 for 6 hours before, concurrently with, and hourly for 3 hours after the Niaspan® dose. Episodes of flushing (including burning, itching, crawling sensation, pain and/or reddening of the skin, fever-like sensation) were recorded with start and end time maximum severity, and individual symptoms captured. A 100 mm visual analog scale (0=no flushing symptoms; 100=intolerable symptoms) was used to capture severity as reported by the subject. For each subject during each treatment period, the number of episodes of flushing, maximum severity of all episodes of flushing, and total duration of flushing, from start of the first episode to the end of the last episode, was calculated and summarized by treatment regimen. […] A total of 54 subjects were enrolled in the study. Forty-six subjects completed all three dosing periods and have contributed data to the evaluation of flushing parameters. A total of 51 subjects were exposed to Treatment A (240 mg ASA), 50 to B (60 mg ASA), and 50 to C (Placebo); these subjects comprise the population for evaluation of safety parameters.

[3] = Example 2 safety: monitoring of adverse events; assay type: in vivo, healthy volunteers
Method: Safety was assessed be assessing flushing episodes and by monitoring of other adverse events.
An adverse event (AE) is any unfavorable and unintended sign including an abnormal laboratory finding, symptom, or disease temporally associated with the use of a medical product, whether or not considered related to the study drug. The severity rating was scaled based on the following categories: • mild—awareness of a symptom, but easily tolerated; • moderate—discomfort enough to cause interference with usual activity; • severe—incapacitating with inability to work or perform usual activity.
A total of 54 subjects were enrolled in the study. Forty-six subjects completed all three dosing periods and have contributed data to the evaluation of flushing parameters. A total of 51 subjects were exposed to Treatment A (240 mg ASA), 50 to B (60 mg ASA), and 50 to C (Placebo); these subjects comprise the population for evaluation of safety parameters.

[4] = ASA and salicylic acid plasma pharmacokinetic profiles; assay type: in vivo; conditions: for aspirin plasma AUC / salicylic acid plasma AUC: in vivo; for Cmax: plasma, oral
[5] = system: flushing induced by nicotinic acid; conditions: guinea pigs; aspirin 50, 100 or 200 mg/kg; cited from earlier work
[6] = system: flushing induced by nicotinic acid; conditions: humans; total 975 mg aspirin (650 mg at 1 hr and 325 mg at 0.5 hr prior to high dose nicotinic acid); cited from earlier work
[7] = in vivo; cited from earlier work

aspirin plasma AUC ([4]; 160 mg): ~800 ngml^−1h
salicylic acid plasma AUC ([4]; 160 mg): ~11000 ngml^−1h
aspirin plasma AUC ([4]; 240 mg): ~1200 ngml^−1h
salicylic acid plasma AUC ([4]; 240 mg): ~16300 ngml^−1h
aspirin plasma AUC ([4]; 324 mg): ~1600 ngml^−1h
salicylic acid plasma AUC ([4]; 324 mg): ~22000 ngml^−1h
SMILES: CC(=O)Oc1ccccc1C(=O)O [ASA, acetyl salicylic acid]
reduction in mean flush intensity [1]: 53%
reduction in median flush intensity [1]: 77%
episodes of flushing per subject, mean ([2]; 60 mg ASA): 1.4
subjects who experienced a flushing response ([2]; 60 mg ASA (Treatment B)): 87%
incidence of itching, crawling, reddening and fever-like sensation of the skin ([2]; 60 mg ASA compared to placebo): occurred less frequently
times more likely to have fewer episodes of flushing ([2]; 60 mg ASA compared to placebo (p>0.10)): 1.3 times
total number of flushing episodes ([2]; 60 mg ASA): 64 episodes
maximum severity of flushing, mean ([2]; 60 mg ASA): 36.1 mm
maximum severity of flushing, median ([2]; 60 mg ASA): 35.0 mm
total cumulative duration of flushing, mean ([2]; 60 mg ASA): 101.8 min
total cumulative duration of flushing, median ([2]; 60 mg ASA): 84.0 min
episodes of flushing per subject, mean ([2]; 240 mg ASA): 1.1
subjects who experienced a flushing response ([2]; 240 mg ASA (Treatment A)): 74%
incidence of individual flushing symptoms ([2]; 240 mg ASA compared to 60 mg ASA or placebo): lower incidence of each flushing symptom
times more likely to have fewer episodes of flushing ([2]; 240 mg ASA compared to 60 mg ASA, multinomial logistic regression (p=0.05)): 1.7 times
times more likely to have fewer episodes of flushing ([2]; 240 mg ASA compared to placebo, multinomial logistic regression (p=0.01)): 2.1 times
total number of flushing episodes ([2]; 240 mg ASA): 52 episodes
maximum severity of flushing, mean ([2]; 240 mg ASA): 25.8 mm
maximum severity of flushing, median ([2]; 240 mg ASA): 20.0 mm
total cumulative duration of flushing, mean ([2]; 240 mg ASA): 67.1 min
total cumulative duration of flushing, median ([2]; 240 mg ASA): 44.5 min
adverse events involving gastrointestinal disorders ([3]; 60 mg ASA): 3 subjects
headache ([3]; 60 mg ASA): 5 subjects
Number of AEs ([3]; 60 mg ASA (n = 50)): 14
Subjects with AEs Leading to Withdrawal ([3]; 60 mg ASA (n = 50)): 0 (0.0%) subjects (%)
Subjects with Serious AEs ([3]; 60 mg ASA (n = 50)): 0 (0.0%) subjects (%)
Subjects with Severe AEs ([3]; 60 mg ASA (n = 50)): 0 (0.0%) subjects (%)
Subjects with any AE ([3]; 60 mg ASA (n = 50)): 10 (20.0%) subjects (%)
Subjects with any CTM-related AE ([3]; 60 mg ASA (n = 50)): 7 (14.0%) subjects (%)
adverse events involving gastrointestinal disorders ([3]; 240 mg ASA): 4 subjects
headache ([3]; 240 mg ASA): 4 subjects
Number of AEs ([3]; 240 mg ASA (n = 51)): 14
Subjects with AEs Leading to Withdrawal ([3]; 240 mg ASA (n = 51)): 0 (0.0%) subjects (%)
Subjects with Serious AEs ([3]; 240 mg ASA (n = 51)): 0 (0.0%) subjects (%)
Subjects with Severe AEs ([3]; 240 mg ASA (n = 51)): 0 (0.0%) subjects (%)
Subjects with any AE ([3]; 240 mg ASA (n = 51)): 12 (23.5%) subjects (%)
Subjects with any CTM-related AE ([3]; 240 mg ASA (n = 51)): 7 (13.7%) subjects (%)
flushing induced by nicotinic acid [5]: reduce the flushing induced by nicotinic acid
flushing induced by nicotinic acid [6]: reduce the flushing induced by nicotinic acid

SMILES: O=C(O)c1cccnc1 [Niacin, nicotinic acid]
reduces Lp(a) levels [7]: about 40%

Cmax ([4]; 160 mg, fast release rate): ~2600 ng/mL
Cmax ([4]; 160 mg, intermediate release rate): ~1700 ng/mL
Cmax ([4]; 160 mg, slow release rate): ~1200 ng/mL
Cmax ([4]; 240 mg, fast release rate): ~3700 ng/mL
Cmax ([4]; 240 mg, intermediate release rate): ~2600 ng/mL
Cmax ([4]; 240 mg, slow release rate): ~1800 ng/mL
Cmax ([4]; 324 mg, fast release rate): ~5000 ng/mL
Cmax ([4]; 324 mg, intermediate release rate): ~3500 ng/mL
Cmax ([4]; 324 mg, slow release rate): ~2400 ng/mL
SMILES: O=C(O)c1ccccc1O [salicylic acid]
